Experiments:
[1] = test system: Neisseria gonorrhoeae; test: microbe, parasite or virus in culture
Description: Antimicrobial activity against Neisseria gonorrhoeae isolate bropyst serotype with PBP2 pattern 12 mutant NG-MAST sequence type 604 by agar plate dilution method

[2] = test system: Neisseria gonorrhoeae; test: microbe, parasite or virus in culture; remark: listed apart in the source
Description: Antimicrobial activity against Neisseria gonorrhoeae isolate with PBP2 pattern 10 mutant NG-MAST sequence type 1677 by agar plate dilution method

[3] = test system: Neisseria gonorrhoeae; test: microbe, parasite or virus in culture; remark: listed apart in the source
Description: Antimicrobial activity against Neisseria gonorrhoeae isolate with PBP2 pattern 4 mutant NG-MAST sequence type 69 by agar plate dilution method

[4] = test system: Neisseria gonorrhoeae; test: microbe, parasite or virus in culture; remark: listed apart in the source
Description: Antimicrobial activity against Neisseria gonorrhoeae isolate with PBP2 pattern 9 mutant NG-MAST sequence type 5 by agar plate dilution method

[5] = test system: Neisseria gonorrhoeae; test: microbe, parasite or virus in culture; remark: listed apart in the source
Description: Antimicrobial activity against Neisseria gonorrhoeae isolate with PBP2 pattern 10 mutant NG-MAST sequence type 1424 by agar plate dilution method

[6] = test system: Neisseria gonorrhoeae; test: microbe, parasite or virus in culture; remark: listed apart in the source
Description: Antimicrobial activity against Neisseria gonorrhoeae isolate with PBP2 pattern 5 mutant NG-MAST sequence type 1688 by agar plate dilution method

[7] = test system: Neisseria gonorrhoeae; test: microbe, parasite or virus in culture; remark: listed apart in the source
Description: Antimicrobial activity against Neisseria gonorrhoeae isolate with PBP2 pattern 12 mutant NG-MAST sequence type 1426 by agar plate dilution method

[8] = test system: Neisseria gonorrhoeae; test: microbe, parasite or virus in culture; remark: listed apart in the source
Description: Antimicrobial activity against Neisseria gonorrhoeae isolate with PBP2 pattern 11 mutant NG-MAST sequence type 1420 by agar plate dilution method

[9] = test system: Neisseria gonorrhoeae; test: microbe, parasite or virus in culture; remark: listed apart in the source
Description: Antimicrobial activity against Neisseria gonorrhoeae isolate with PBP2 pattern 12 mutant NG-MAST sequence type 604 by agar plate dilution method

[10] = test system: Neisseria gonorrhoeae; test: microbe, parasite or virus in culture; remark: listed apart in the source
Description: Antimicrobial activity against Neisseria gonorrhoeae isolate with PBP2 pattern 13 mutant NG-MAST sequence type 1409 by agar plate dilution method

[11] = test system: Neisseria gonorrhoeae; test: microbe, parasite or virus in culture; remark: listed apart in the source
Description: Antimicrobial activity against Neisseria gonorrhoeae isolate with PBP2 pattern 13 mutant NG-MAST sequence type 1624 by agar plate dilution method

[12] = test system: Neisseria gonorrhoeae; test: microbe, parasite or virus in culture; remark: listed apart in the source
Description: Antimicrobial activity against Neisseria gonorrhoeae isolate with PBP2 pattern 13 mutant NG-MAST sequence type 1623 by agar plate dilution method

[13] = test system: Neisseria gonorrhoeae; test: microbe, parasite or virus in culture; remark: listed apart in the source
Description: Antimicrobial activity against Neisseria gonorrhoeae isolate with PBP2 pattern 18 mutant NG-MAST sequence type 864 by agar plate dilution method

[14] = test system: Neisseria gonorrhoeae; test: Antimicrobial activity against Neisseria gonorrhoeae isolate with PBP2 pattern 18 mutant NG-MAST sequence type 1621 by agar plate dilution method; format: functional
[15] = test system: Neisseria gonorrhoeae; test: microbe, parasite or virus in culture; remark: listed apart in the source
Description: Antimicrobial activity against Neisseria gonorrhoeae isolate with PBP2 pattern 13 mutant NG-MAST sequence type 1676 by agar plate dilution method

[16] = test system: Neisseria gonorrhoeae; test: microbe, parasite or virus in culture; remark: listed apart in the source
Description: Antimicrobial activity against Neisseria gonorrhoeae isolate with PBP2 pattern 9 mutant NG-MAST sequence type 21 by agar plate dilution method

[17] = test system: Neisseria gonorrhoeae; test: Antimicrobial activity against Neisseria gonorrhoeae isolate with PBP2 pattern 13 mutant NG-MAST sequence type 1413 by agar plate dilution method; format: functional
[18] = test system: Neisseria; test: Antimicrobial activity against multiresistant Gonococcus; format: functional
[19] = test system: Neisseria gonorrhoeae; test: microbe, parasite or virus in culture; remark: listed apart in the source
Description: Antimicrobial activity against Neisseria gonorrhoeae isolate with PBP2 pattern 17 mutant NG-MAST sequence type 1342 by agar plate dilution method

[20] = test system: Neisseria gonorrhoeae; test: microbe, parasite or virus in culture; remark: listed apart in the source
Description: Antimicrobial activity against Neisseria gonorrhoeae isolate with PBP2 pattern 7 mutant NG-MAST sequence type 1622 by agar plate dilution method

[21] = test system: Neisseria gonorrhoeae; test: microbe, parasite or virus in culture; remark: listed apart in the source
Description: Antimicrobial activity against Neisseria gonorrhoeae isolate with PBP2 pattern 10 mutant NG-MAST sequence type 835 by agar plate dilution method

[22] = test system: Neisseria gonorrhoeae; test: microbe, parasite or virus in culture; remark: listed apart in the source
Description: Antimicrobial activity against Neisseria gonorrhoeae isolate with PBP2 pattern 11 mutant NG-MAST sequence type 5 by agar plate dilution method

[23] = test system: Neisseria gonorrhoeae; test: microbe, parasite or virus in culture; remark: listed apart in the source
Description: Antimicrobial activity against Neisseria gonorrhoeae isolate with PBP2 pattern 10 mutant NG-MAST sequence type 925 by agar plate dilution method

[24] = test system: Neisseria gonorrhoeae; test: Antimicrobial activity against Neisseria gonorrhoeae isolate with PBP2 pattern 4 mutant NG-MAST sequence type 327 by agar plate dilution method; format: functional
[25] = test system: Neisseria gonorrhoeae; test: microbe, parasite or virus in culture; remark: listed apart in the source
Description: Antimicrobial activity against Neisseria gonorrhoeae isolate with PBP2 pattern 20 mutant NG-MAST sequence type 211 by agar plate dilution method

[26] = test system: Neisseria gonorrhoeae; test: microbe, parasite or virus in culture; remark: listed apart in the source
Description: Antimicrobial activity against Neisseria gonorrhoeae isolate with PBP2 pattern 12 mutant NG-MAST sequence type 1703 by agar plate dilution method

[27] = test system: Neisseria gonorrhoeae; test: microbe, parasite or virus in culture; remark: listed apart in the source
Description: Antimicrobial activity against Neisseria gonorrhoeae isolate with PBP2 pattern 5 mutant NG-MAST sequence type 1410 by agar plate dilution method

[28] = test system: Neisseria gonorrhoeae; test: Antimicrobial activity against Neisseria gonorrhoeae isolate with PBP2 pattern 13 mutant NG-MAST sequence type 1425 by agar plate dilution method; format: functional
[29] = test system: Neisseria gonorrhoeae; test: microbe, parasite or virus in culture; remark: listed apart in the source
Description: Antimicrobial activity against Neisseria gonorrhoeae isolate with PBP2 pattern 10 mutant NG-MAST sequence type 1414 by agar plate dilution method

[30] = test system: Neisseria gonorrhoeae; test: microbe, parasite or virus in culture; remark: listed apart in the source
Description: Antimicrobial activity against Neisseria gonorrhoeae isolate with PBP2 pattern 7 mutant NG-MAST sequence type 1619 by agar plate dilution method

[31] = test system: Neisseria gonorrhoeae; test: Antimicrobial activity against Neisseria gonorrhoeae isolate with PBP2 pattern 13 mutant NG-MAST sequence type 1148 by agar plate dilution method; format: functional
[32] = test system: Neisseria gonorrhoeae; test: Antimicrobial activity against Neisseria gonorrhoeae isolate with PBP2 pattern 7 mutant NG-MAST sequence type 1422 by agar plate dilution method; format: functional
[33] = test system: Neisseria gonorrhoeae; test: Antimicrobial activity against Neisseria gonorrhoeae isolate with PBP2 pattern 17 mutant NG-MAST sequence type 1620 by agar plate dilution method; format: functional
[34] = test system: Neisseria gonorrhoeae; test: microbe, parasite or virus in culture; remark: listed apart in the source
Description: Antimicrobial activity against Neisseria gonorrhoeae isolate with PBP2 pattern 10 mutant NG-MAST sequence type 326 by agar plate dilution method

Measured: MIC

CO/N=C(\C(=O)N[C@@H]1C(=O)N2C(C(=O)O)=C(CSc3nc(=O)c(O)nn3C)CS[C@H]12)c1csc(N)n1 [CEFTRIAXONE]
0.12 mg/L: [14] | [17] | [24] | [28] | [31] | [32] | [33]
0.5 mg/L: [18]
0.06 mg/L: all other assays above

From ChEMBL document CHEMBL1143424, “Diversity of penA alterations and subtypes in Neisseria gonorrhoeae strains from Sydney, Australia, that are less susceptible to ceftriaxone” (2007)
